Test results: ChEMBL document CHEMBL5518215, “Unlocking Antibacterial Potential: Key-Site-Based Regulation of Antibacterial Spectrum of Peptides” (J Med Chem, 2024)

Columns and labels:
[1] = tested on: Escherichia coli; experiment: Antimicrobial activity against Escherichia coli 25922 assessed as absence bacterial growth measured after 18 to 24 hrs incubation by NCCLS method; format: functional; conditions: time 18-24 hrs
[2] = tested on: Escherichia coli; experiment: Antimicrobial activity against Escherichia coli K88 assessed as absence bacterial growth measured after 18 to 24 hrs incubation by NCCLS method; format: functional; conditions: time 18-24 hrs
[3] = tested on: Salmonella typhimurium; experiment: Antimicrobial activity against Salmonella typhimurium 14028 assessed as absence bacterial growth measured after 18 to 24 hrs incubation by NCCLS method; format: functional, Salmonella enterica subsp. enterica serovar Typhimurium; conditions: Salmonella enterica, time 18-24 hrs
[4] = Antimicrobial activity against Salmonella pullorum C7913 assessed as absence bacterial growth measured after 18 to 24 hrs incubation by NCCLS method; format: functional, Salmonella enterica subsp. enterica serovar Pullorum; conditions: Salmonella enterica, time 18-24 hrs
[5] = tested on: Pseudomonas aeruginosa; experiment: Antimicrobial activity against Pseudomonas aeruginosa 27853 assessed as absence bacterial growth measured after 18 to 24 hrs incubation by NCCLS method; format: functional; conditions: time 18-24 hrs
[6] = tested on: Acinetobacter baumannii; experiment: Antimicrobial activity against Acinetobacter baumannii 1.6769 assessed as absence bacterial growth measured after 18 to 24 hrs incubation by NCCLS method; format: functional; conditions: time 18-24 hrs
[7] = tested on: Enterococcus faecalis; experiment: Antimicrobial activity against Enterococcus faecalis 29212 assessed as absence bacterial growth measured after 18 to 24 hrs incubation by NCCLS method; format: functional; conditions: time 18-24 hrs
[8] = tested on: Listeria monocytogenes; experiment: Antimicrobial activity against Listeria monocytogenes 1.10753 assessed as absence bacterial growth measured after 18 to 24 hrs incubation by NCCLS method; format: functional; conditions: time 18-24 hrs
[9] = tested on: Bacillus cereus; experiment: Antimicrobial activity against Bacillus cereus 1.932 assessed as absence bacterial growth measured after 18 to 24 hrs incubation by NCCLS method; format: functional; conditions: time 18-24 hrs
[10] = tested on: Staphylococcus aureus; experiment: Antimicrobial activity against Staphylococcus aureus 29213 assessed as absence bacterial growth measured after 18 to 24 hrs incubation by NCCLS method; format: functional; conditions: time 18-24 hrs
[11] = tested on: Staphylococcus aureus; experiment: Antimicrobial activity against Methicillin-resistant Staphylococcus aureus 43300 assessed as absence bacterial growth measured after 18 to 24 hrs incubation by NCCLS method; format: functional; conditions: time 18-24 hrs
[12] = tested on: Staphylococcus epidermidis; experiment: Antimicrobial activity against Staphylococcus epidermidis 12228 assessed as absence bacterial growth measured after 18 to 24 hrs incubation by NCCLS method; format: functional; conditions: time 18-24 hrs
[13] = tested on: Staphylococcus aureus; experiment: Antimicrobial activity against Staphylococcus aureus 29213 assessed as absence bacterial growth measured after 18 to 24 hrs incubation by NCCLS m; format: functional; conditions: time 18-24 hrs
[14] = tested on: Escherichia coli; experiment: Antimicrobial activity against Escherichia coli 25922 assessed as bacterial killing measured after 16 hrs incubation; format: functional
[15] = tested on: Escherichia coli; experiment: Antimicrobial activity against Escherichia coli K88 assessed as bacterial killing measured after 16 hrs incubation; format: functional
[16] = tested on: Salmonella typhimurium; experiment: Antimicrobial activity against Salmonella typhimurium 14028 assessed as bacterial killing measured after 16 hrs incubation; format: functional, Salmonella enterica subsp. enterica serovar Typhimurium; conditions: Salmonella enterica
[17] = tested on: Salmonella typhimurium; experiment: Antimicrobial activity against Salmonella typhimurium C7731 assessed as bacterial killing measured after 16 hrs incubation; format: functional, Salmonella enterica subsp. enterica serovar Typhimurium; conditions: Salmonella enterica
[18] = Antimicrobial activity against Salmonella pullorum C7913 assessed as bacterial killing measured after 16 hrs incubation; format: functional, Salmonella enterica subsp. enterica serovar Pullorum; conditions: Salmonella enterica
[19] = tested on: Pseudomonas aeruginosa; experiment: Antimicrobial activity against Pseudomonas aeruginosa 27853 assessed as bacterial killing measured after 16 hrs incubation; format: functional
[20] = tested on: Acinetobacter baumannii; experiment: Antimicrobial activity against Acinetobacter baumannii 1.6769 assessed as bacterial killing measured after 16 hrs incubation; format: functional
[21] = tested on: Enterococcus faecalis; experiment: Antimicrobial activity against Enterococcus faecalis 29212 assessed as bacterial killing measured after 16 hrs incubation; format: functional
[22] = tested on: Listeria monocytogenes; experiment: Antimicrobial activity against Listeria monocytogenes 1.10753 assessed as bacterial killing measured after 16 hrs incubation; format: functional
[23] = tested on: Bacillus cereus; experiment: Antimicrobial activity against Bacillus cereus 1.932 assessed as bacterial killing measured after 16 hrs incubation; format: functional
[24] = tested on: Staphylococcus aureus; experiment: Antimicrobial activity against Staphylococcus aureus 29213 assessed as bacterial killing measured after 16 hrs incubation; format: functional
[25] = tested on: Staphylococcus aureus; experiment: Antimicrobial activity against Methicillin-resistant Staphylococcus aureus 43300 assessed as bacterial killing measured after 16 hrs incubation; format: functional
[26] = tested on: Staphylococcus epidermidis; experiment: Antimicrobial activity against Staphylococcus epidermidis 12228 assessed as bacterial killing measured after 16 hrs incubation; format: functional
[27] = tested on: Staphylococcus aureus; experiment: Antimicrobial activity against Staphylococcus aureus 25923 assessed as bacterial killing measured after 16 hrs incubation; format: functional
[28] = tested on: Salmonella typhimurium; experiment: Antimicrobial activity against Salmonella typhimurium C7731 assessed as absence bacterial growth measured after 18 to 24 hrs incubation by NCCLS method; format: functional, Salmonella enterica subsp. enterica serovar Typhimurium; conditions: Salmonella enterica, time 18-24 hrs
[29] = tested on: Escherichia coli; experiment: Antimicrobial activity against Escherichia coli 25922 assessed as absence bacterial growth measured after 18 to 24 hrs incubation in presence of 50% serum by NCCLS method; format: functional; conditions: time 18-24 hrs
[30] = tested on: Escherichia coli; experiment: Antimicrobial activity against Escherichia coli 25922 assessed as absence bacterial growth measured after 18 to 24 hrs incubation in presence of 25% serum by NCCLS method; format: functional; conditions: time 18-24 hrs
[31] = tested on: Escherichia coli; experiment: Antimicrobial activity against Escherichia coli 25922 assessed as absence bacterial growth measured after 18 to 24 hrs incubation in presence of 12.5% serum by NCCLS method; format: functional; conditions: time 18-24 hrs
[32] = Hemolytic activity in human RBC at effective concentration at 128 uM measured after 1 hr by microplate reader relative to control; format: toxicity, cell-based, Erythrocyte; conditions: human red blood cells (erythrocytes), read-out: Activity
[33] = tested on: Escherichia coli; experiment: Antimicrobial activity against Escherichia coli 25922 assessed as absence bacterial growth measured after 18 to 24 hrs incubation in presence of NaCl by NCCLS method; format: functional; conditions: time 18-24 hrs
[34] = tested on: Escherichia coli; experiment: Antimicrobial activity against Escherichia coli 25922 assessed as absence bacterial growth measured after 18 to 24 hrs incubation in presence of KCl by NCCLS method; format: functional; conditions: time 18-24 hrs
[35] = tested on: Escherichia coli; experiment: Antimicrobial activity against Escherichia coli 25922 assessed as absence bacterial growth measured after 18 to 24 hrs incubation in presence of NH4Cl by NCCLS method; format: functional; conditions: time 18-24 hrs
[36] = tested on: Escherichia coli; experiment: Antimicrobial activity against Escherichia coli 25922 assessed as absence bacterial growth measured after 18 to 24 hrs incubation in presence of MgCl2 by NCCLS method; format: functional; conditions: time 18-24 hrs
[37] = tested on: Escherichia coli; experiment: Antimicrobial activity against Escherichia coli 25922 assessed as absence bacterial growth measured after 18 to 24 hrs incubation in presence of ZnCl2 by NCCLS method; format: functional; conditions: time 18-24 hrs
[38] = tested on: Escherichia coli; experiment: Antimicrobial activity against Escherichia coli 25922 assessed as absence bacterial growth measured after 18 to 24 hrs incubation in presence of FeCl3 by NCCLS method; format: functional; conditions: time 18-24 hrs
[39] = Cytotoxicity against human HEK-293T cells assessed as cell survival rate at 64 uM measured after 8 hrs by MTT assay relative to control; format: toxicity, cell-based; conditions: read-out: Activity
[40] = Cytotoxicity against porcine IPEC-J2 cells assessed as cell survival rate at 64 uM measured after 8 hrs by MTT assay relative to control; format: toxicity, cell-based, Sus scrofa; conditions: pig, read-out: Activity
[41] = tested on: Erythrocyte; experiment: Hemolytic activity in human RBC at effective concentration measured after 1 hr by microplate reader analysis; format: toxicity, cell-based
[42] = Cytotoxicity against mouse RAW264.7 cells assessed as cell survival rate measured after 8 hrs by MTT assay; format: toxicity, cell-based
[43] = Cytotoxicity against human HEK-293T cells assessed as cell survival rate measured after 8 hrs by MTT assay; format: toxicity, cell-based
[44] = Cytotoxicity against porcine IPEC-J2 cells assessed as cell survival rate measured after 8 hrs by MTT assay; format: toxicity, cell-based, Sus scrofa; conditions: pig

H-GKLWLKGGKLWLKAGKLWLKG-NH2
MIC [1]: 2 µM
MIC [2]: 1 µM
MIC [3]: 4 µM
MIC [4]: 2 µM
MIC [5]: 4 µM
MIC [6]: 2 µM
MIC [7]: 8 µM
MIC [8]: > 32 µM
MIC [9]: 4 µM
MIC [10]: 8 µM
MIC [11]: 4 µM
MIC [12]: 4 µM
MIC [13]: 4 µM
MBC [14]: 4 µM
MBC [15]: 1 µM
MBC [16]: 4 µM
MBC [17]: 8 µM
MBC [18]: 2 µM
MBC [19]: 8 µM
MBC [20]: 4 µM
MBC [21]: 16 µM
MBC [22]: > 32 µM
MBC [23]: 4 µM
MBC [24]: 8 µM
MBC [25]: 4 µM
MBC [26]: 8 µM
MBC [27]: 8 µM
MIC [28]: 4 µM
MIC [29]: > 32 µM
MIC [30]: 32 µM
MIC [31]: 16 µM
hemolysis at 1 h, 128 µM [32]: < 10%
MIC [33]: 16 µM
MIC [34]: 2 µM
MIC [35]: 2 µM
MIC [36]: 8 µM
MIC [37]: 1 µM
MIC [38]: 2 µM
viability at 8 h, 64 µM [39]: > 80%
viability at 8 h, 64 µM [40]: > 80%
HC10 [41]: > 128 µM
IC50 at 8 h [42]: > 64 µM
IC50 at 8 h [43]: > 64 µM
IC50 at 8 h [44]: 54.1 µM

H-AKLWLKGGKLWLKGGKLWLKG-NH2
MIC [1]: 4 µM
MIC [2]: 1 µM
MIC [3]: 4 µM
MIC [4]: 2 µM
MIC [5]: > 32 µM
MIC [6]: 16 µM
MIC [7]: > 32 µM
MIC [8]: > 32 µM
MIC [9]: > 32 µM
MIC [10]: > 32 µM
MIC [11]: > 32 µM
MIC [12]: > 32 µM
MIC [13]: > 32 µM
MBC [14]: 8 µM
MBC [15]: 1 µM
MBC [16]: 16 µM
MBC [17]: 32 µM
MBC [18]: 2 µM
MBC [19]: > 32 µM
MBC [20]: 16 µM
MBC [21]: > 32 µM
MBC [22]: > 32 µM
MBC [23]: > 32 µM
MBC [24]: > 32 µM
MBC [25]: > 32 µM
MBC [26]: > 32 µM
MBC [27]: > 32 µM
MIC [28]: 16 µM
MIC [29]: > 32 µM
MIC [30]: > 32 µM
MIC [31]: > 32 µM
hemolysis at 1 h, 128 µM [32]: < 10%
MIC [33]: > 32 µM
MIC [34]: 4 µM
MIC [35]: 4 µM
MIC [36]: 16 µM
MIC [37]: 4 µM
MIC [38]: 4 µM
HC10 [41]: > 128 µM
IC50 at 8 h [42]: > 64 µM
IC50 at 8 h [43]: > 64 µM
IC50 at 8 h [44]: > 64 µM
